Earlier results as cited in patent US8343544B2, “Oral sustained-release tablet” (Kyorin Pharmaceutical Co., Ltd., priority 2003, dated 2013).

Settings: conventional preparation

For `Cc1nccn1CCC(C(N)=O)(c1ccccc1)c1ccccc1` [KRP-197, 4-(2-methyl-1-imidazolyl)-2,2-diphenylbutylamide], the “absorption after an oral administration” value is given as “rapidly absorbed” and the half-life (oral) is given as “relatively short”.
